These results are taken from article PMC9329436, “Optimization of the 4-anilinoquin(az)oline scaffold as epidermal growth factor receptor (EGFR) inhibitors for chordoma utilizing a toxicology profiling assay platform” (Scientific Reports, 2022).

Common to all, as to assay type: biochemical
Assay [1] deals with 320 wild-type protein kinases (Homo sapiens, UniProt Q8IU85). The following applies: CAMK1D, singlicate. The text has this:
(§1) Table S4. Profiling of two compounds at two concentrations against 320 wild-type protein kinases; singlicate measurement; Residual activities (% of control).

For assay [2], the target named is 320 wild-type protein kinases (Homo sapiens, UniProt P17948). Particulars: kinase VEGF-R1, singlicate.
Sequence of 320 wild-type protein kinases (Homo sapiens, UniProt P17948) (P17948 27-1338): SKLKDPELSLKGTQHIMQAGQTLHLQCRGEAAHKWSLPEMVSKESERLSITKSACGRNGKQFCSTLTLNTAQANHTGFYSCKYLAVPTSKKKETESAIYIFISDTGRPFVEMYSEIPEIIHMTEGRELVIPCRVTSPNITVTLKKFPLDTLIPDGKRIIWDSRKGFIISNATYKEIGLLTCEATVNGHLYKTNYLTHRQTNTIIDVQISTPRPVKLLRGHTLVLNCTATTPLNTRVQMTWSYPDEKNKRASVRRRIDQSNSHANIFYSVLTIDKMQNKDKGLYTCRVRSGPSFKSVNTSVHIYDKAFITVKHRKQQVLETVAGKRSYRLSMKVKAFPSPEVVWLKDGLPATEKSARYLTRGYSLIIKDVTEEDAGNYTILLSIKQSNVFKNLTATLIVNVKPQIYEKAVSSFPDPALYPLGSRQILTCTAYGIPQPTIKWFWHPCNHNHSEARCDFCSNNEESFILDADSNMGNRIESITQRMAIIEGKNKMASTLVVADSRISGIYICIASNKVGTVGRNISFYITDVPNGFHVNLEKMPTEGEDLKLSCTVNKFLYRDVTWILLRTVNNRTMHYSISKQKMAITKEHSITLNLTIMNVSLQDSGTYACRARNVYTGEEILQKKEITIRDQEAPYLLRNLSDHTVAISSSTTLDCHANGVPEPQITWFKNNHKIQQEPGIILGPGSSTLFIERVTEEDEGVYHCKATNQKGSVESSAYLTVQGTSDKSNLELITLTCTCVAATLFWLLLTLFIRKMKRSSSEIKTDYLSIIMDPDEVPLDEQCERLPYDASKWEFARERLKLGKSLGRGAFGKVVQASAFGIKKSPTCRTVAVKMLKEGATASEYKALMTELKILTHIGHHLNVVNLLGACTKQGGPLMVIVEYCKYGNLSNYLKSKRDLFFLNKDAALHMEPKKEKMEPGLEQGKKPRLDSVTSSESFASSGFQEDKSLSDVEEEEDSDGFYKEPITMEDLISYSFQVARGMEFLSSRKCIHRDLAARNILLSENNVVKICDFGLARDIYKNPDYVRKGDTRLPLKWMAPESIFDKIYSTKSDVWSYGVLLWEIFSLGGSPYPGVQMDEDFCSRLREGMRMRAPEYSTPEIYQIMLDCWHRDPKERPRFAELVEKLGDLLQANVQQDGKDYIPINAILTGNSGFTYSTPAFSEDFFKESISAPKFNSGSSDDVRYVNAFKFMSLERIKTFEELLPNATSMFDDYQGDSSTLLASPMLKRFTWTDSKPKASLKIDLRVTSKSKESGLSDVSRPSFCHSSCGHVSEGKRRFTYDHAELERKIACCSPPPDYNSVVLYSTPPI
Description: as §1

Assay [3] addresses T1, 320 wild-type protein kinases (Homo sapiens, UniProt O43318).
T1 sequence (O43318 1-606): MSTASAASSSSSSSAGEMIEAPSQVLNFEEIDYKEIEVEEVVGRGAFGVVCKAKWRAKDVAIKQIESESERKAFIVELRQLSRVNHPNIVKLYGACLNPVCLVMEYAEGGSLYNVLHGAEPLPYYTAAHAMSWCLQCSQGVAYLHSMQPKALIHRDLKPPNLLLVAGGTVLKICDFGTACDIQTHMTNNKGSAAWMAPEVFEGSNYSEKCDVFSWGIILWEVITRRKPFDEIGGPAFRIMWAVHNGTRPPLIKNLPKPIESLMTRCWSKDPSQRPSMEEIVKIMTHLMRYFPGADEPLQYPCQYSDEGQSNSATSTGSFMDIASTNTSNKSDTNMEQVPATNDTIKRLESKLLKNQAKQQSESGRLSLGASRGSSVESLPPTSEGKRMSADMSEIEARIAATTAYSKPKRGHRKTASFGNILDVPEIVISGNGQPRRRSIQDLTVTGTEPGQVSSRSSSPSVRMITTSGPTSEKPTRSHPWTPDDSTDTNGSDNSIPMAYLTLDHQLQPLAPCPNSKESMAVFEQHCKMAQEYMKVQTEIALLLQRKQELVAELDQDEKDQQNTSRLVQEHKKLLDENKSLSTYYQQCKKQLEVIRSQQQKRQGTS
The following applies: singlicate.
Description: as §1

In assay [4] the target is 320 wild-type protein kinases (Homo sapiens, UniProt Q15375). Particulars: singlicate.
Sequence of 320 wild-type protein kinases (Homo sapiens, UniProt Q15375) (Q15375 28-998): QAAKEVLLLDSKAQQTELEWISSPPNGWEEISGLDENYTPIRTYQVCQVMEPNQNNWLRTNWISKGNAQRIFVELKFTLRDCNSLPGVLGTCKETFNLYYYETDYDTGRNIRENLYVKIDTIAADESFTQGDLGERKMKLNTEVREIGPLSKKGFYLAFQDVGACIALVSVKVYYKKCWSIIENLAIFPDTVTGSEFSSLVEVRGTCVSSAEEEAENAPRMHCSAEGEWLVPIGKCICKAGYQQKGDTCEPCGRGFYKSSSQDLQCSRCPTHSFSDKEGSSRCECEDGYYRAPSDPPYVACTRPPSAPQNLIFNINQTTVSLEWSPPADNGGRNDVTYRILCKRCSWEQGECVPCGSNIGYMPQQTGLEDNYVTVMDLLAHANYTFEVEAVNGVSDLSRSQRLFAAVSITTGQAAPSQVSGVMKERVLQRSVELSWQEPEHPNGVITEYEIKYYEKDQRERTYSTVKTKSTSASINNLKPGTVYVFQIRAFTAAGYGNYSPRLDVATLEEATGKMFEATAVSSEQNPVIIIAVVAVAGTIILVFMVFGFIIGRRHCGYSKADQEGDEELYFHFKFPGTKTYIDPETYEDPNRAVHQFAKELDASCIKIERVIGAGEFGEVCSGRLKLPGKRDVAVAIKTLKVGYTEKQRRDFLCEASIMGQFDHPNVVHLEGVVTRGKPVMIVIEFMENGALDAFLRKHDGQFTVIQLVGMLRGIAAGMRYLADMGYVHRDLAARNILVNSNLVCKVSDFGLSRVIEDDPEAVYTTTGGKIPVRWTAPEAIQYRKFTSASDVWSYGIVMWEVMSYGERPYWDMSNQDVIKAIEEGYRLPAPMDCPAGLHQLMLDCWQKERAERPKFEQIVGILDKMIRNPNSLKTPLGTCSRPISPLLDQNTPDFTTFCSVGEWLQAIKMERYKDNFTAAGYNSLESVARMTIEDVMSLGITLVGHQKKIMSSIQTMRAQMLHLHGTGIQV
Description: as §1

Assay [5] concerns the target T2, 320 wild-type protein kinases (Homo sapiens, UniProt O60285).
T2 sequence (O60285 1-661): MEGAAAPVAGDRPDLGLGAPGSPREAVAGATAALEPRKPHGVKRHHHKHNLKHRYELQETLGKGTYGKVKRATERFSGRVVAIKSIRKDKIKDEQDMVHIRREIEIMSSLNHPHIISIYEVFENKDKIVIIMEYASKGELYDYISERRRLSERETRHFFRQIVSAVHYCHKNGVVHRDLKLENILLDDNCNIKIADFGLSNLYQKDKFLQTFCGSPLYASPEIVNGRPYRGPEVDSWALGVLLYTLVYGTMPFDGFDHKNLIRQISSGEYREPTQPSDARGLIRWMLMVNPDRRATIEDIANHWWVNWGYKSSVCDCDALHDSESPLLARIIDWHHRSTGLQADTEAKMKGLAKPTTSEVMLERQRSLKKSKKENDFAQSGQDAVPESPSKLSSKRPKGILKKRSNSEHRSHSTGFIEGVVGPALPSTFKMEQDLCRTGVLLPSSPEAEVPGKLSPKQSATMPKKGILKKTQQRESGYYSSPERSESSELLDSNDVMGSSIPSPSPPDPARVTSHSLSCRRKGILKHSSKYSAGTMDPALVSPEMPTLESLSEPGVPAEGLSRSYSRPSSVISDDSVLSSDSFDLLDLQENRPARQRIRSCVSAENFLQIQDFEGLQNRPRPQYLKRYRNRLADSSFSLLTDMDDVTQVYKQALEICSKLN
The following applies: singlicate.
Description: as §1

Assay [6] deals with 320 wild-type protein kinases (Homo sapiens, UniProt P51812). Particulars: kinase RPS6KA3, singlicate.
Description: as §1

The target of assay [7] is 320 wild-type protein kinases (Homo sapiens, UniProt P54756). Particulars: singlicate.
Sequence of 320 wild-type protein kinases (Homo sapiens, UniProt P54756) (P54756 25-1037): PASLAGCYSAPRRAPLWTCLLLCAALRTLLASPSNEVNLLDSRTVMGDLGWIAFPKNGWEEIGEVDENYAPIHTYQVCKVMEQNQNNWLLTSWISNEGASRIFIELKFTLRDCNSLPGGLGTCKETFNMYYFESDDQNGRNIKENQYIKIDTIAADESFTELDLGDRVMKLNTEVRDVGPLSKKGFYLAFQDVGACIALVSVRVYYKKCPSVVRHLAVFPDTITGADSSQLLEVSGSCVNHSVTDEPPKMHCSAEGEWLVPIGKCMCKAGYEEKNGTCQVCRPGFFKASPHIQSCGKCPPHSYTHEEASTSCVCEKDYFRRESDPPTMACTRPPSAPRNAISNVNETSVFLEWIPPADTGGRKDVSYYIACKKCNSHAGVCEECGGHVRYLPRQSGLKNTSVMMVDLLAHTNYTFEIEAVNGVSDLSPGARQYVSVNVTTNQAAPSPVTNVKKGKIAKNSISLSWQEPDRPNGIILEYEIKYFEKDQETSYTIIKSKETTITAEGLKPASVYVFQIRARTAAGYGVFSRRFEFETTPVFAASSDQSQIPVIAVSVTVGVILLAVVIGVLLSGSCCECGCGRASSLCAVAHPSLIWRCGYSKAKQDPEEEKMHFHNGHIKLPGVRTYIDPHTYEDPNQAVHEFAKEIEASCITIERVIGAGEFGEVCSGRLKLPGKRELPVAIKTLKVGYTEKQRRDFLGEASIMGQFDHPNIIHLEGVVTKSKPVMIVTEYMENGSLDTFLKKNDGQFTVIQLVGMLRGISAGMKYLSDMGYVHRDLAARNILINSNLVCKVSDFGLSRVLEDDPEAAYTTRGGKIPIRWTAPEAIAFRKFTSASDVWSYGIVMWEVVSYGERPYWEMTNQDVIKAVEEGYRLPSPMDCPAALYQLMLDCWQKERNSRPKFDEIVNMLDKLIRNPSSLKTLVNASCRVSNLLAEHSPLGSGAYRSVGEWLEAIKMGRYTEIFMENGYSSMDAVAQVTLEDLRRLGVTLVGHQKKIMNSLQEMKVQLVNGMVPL
Description: as §1

For assay [8], the target named is 320 wild-type protein kinases (Homo sapiens, UniProt P06213). The following applies: INS-R, singlicate.
Sequence of 320 wild-type protein kinases (Homo sapiens, UniProt P06213) (P06213 28-1382): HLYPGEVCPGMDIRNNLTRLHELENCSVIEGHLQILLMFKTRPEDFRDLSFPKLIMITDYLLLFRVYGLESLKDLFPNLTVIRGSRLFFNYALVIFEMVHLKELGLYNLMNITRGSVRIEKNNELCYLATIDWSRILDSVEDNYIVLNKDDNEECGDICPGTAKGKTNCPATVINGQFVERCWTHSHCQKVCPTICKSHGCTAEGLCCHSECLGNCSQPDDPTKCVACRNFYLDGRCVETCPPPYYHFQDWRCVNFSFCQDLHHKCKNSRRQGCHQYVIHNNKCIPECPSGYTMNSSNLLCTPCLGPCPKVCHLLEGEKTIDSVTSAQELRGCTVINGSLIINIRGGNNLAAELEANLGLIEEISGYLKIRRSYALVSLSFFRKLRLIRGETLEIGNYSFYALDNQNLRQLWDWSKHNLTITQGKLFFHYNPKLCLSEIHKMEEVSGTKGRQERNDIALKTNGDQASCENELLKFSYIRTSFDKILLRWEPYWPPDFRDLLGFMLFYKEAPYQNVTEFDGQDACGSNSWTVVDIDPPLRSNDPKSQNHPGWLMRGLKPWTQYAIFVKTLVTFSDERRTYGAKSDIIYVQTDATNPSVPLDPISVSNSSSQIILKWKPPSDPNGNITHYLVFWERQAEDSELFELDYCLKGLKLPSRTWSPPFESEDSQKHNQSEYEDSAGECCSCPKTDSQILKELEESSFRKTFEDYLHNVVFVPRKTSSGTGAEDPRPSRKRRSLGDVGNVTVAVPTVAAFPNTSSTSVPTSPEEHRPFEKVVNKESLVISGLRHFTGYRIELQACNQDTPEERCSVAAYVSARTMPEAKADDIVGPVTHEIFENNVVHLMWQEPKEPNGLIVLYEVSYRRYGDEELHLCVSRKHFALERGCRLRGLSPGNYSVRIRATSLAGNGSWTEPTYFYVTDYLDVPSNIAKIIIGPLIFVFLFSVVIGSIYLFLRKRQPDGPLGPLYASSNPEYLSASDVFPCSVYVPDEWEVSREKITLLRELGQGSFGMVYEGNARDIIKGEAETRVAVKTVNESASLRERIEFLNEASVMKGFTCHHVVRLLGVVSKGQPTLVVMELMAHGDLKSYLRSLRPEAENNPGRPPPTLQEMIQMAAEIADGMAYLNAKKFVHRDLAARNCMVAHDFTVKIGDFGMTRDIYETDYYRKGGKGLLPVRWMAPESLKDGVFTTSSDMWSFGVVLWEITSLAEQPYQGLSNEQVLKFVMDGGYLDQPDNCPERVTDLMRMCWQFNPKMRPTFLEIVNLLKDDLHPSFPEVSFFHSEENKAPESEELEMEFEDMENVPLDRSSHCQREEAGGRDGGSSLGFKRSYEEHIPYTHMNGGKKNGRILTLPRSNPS
Description: as §1

Assay [9] deals with T3, 320 wild-type protein kinases (Homo sapiens, UniProt P33981).
T3 sequence (P33981 1-857): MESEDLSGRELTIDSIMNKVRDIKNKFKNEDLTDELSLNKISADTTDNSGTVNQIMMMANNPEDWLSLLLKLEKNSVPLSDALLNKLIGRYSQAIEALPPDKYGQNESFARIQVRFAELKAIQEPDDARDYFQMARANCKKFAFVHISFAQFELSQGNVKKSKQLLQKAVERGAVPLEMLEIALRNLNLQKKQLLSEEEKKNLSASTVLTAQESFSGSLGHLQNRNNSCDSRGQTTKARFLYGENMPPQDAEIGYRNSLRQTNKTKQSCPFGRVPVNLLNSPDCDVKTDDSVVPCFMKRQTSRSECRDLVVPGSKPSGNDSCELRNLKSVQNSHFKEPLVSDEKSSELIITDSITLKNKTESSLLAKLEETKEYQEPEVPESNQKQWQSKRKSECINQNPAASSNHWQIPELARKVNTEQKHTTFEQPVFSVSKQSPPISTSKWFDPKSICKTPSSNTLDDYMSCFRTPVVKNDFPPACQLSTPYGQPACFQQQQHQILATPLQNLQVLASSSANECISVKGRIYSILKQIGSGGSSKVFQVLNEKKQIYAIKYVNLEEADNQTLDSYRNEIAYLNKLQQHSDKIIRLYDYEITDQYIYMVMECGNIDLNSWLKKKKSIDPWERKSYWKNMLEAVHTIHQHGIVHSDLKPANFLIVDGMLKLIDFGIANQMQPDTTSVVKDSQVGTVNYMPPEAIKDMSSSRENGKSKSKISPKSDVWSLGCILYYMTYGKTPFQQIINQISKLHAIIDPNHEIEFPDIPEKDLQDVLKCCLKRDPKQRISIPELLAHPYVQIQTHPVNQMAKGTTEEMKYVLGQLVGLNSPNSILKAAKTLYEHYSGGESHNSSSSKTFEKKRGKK
Particulars: kinase TTK, singlicate.
Description: as §1

Read-outs that look alike come from different tables or passages of the source.

Sequence of 320 wild-type protein kinases (Homo sapiens, UniProt Q8IU85) (Q8IU85 whole entry): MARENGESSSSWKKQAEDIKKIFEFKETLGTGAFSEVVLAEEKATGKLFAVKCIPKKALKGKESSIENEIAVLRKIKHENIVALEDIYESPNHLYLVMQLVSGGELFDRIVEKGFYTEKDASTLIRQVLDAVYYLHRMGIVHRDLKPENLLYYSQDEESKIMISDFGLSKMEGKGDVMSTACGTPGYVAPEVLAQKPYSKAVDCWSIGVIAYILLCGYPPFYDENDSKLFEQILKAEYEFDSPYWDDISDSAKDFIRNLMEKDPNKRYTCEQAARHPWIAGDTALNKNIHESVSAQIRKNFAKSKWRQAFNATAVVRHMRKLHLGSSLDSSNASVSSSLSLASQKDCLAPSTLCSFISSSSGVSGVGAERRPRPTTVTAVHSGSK

In the case of `C#Cc1cc(Nc2ncnc3cc(OC)c(OC)cc23)ccc1Cl` [Compound 45], the Residual activity was 84 % of control in [1] (1.0E-06 M); 99 % of control in [1] (1.0E-07 M); 79 % of control in [3] (MAP3K7/MAP3K7IP1, 1.0E-06 M); 81 % of control in assay [3] (MAP3K7/MAP3K7IP1, 1.0E-07 M); 58 % of control in assay [4] (EPHA7, 1.0E-06 M); 84 % of control in assay [4] (EPHA7, 1.0E-07 M). Besides, the Residual activity is 114 % of control in assay [5] (ARK5, 1.0E-06 M); 104 % of control in [5] (ARK5, 1.0E-07 M); 92 % of control in [7] (EPHA5, 1.0E-06 M); 115 % of control in [7] (EPHA5, 1.0E-07 M); 82 % of control in assay [8] (1.0E-06 M); 97 % of control in [8] (1.0E-07 M). For the same compound, the entries for the “Residual activity, VEGF-R1” value in assay [2] (assay conc. 1.0E-06 M) and in assay [2] (assay conc. 1.0E-07 M) were 85 % of control and 119 % of control, respectively. In addition, the results for the “Residual activity, RPS6KA3” value in assay [6] (assay conc. 1.0E-06 M) and in [6] (assay conc. 1.0E-07 M) were 115 % of control and 119 % of control, respectively. The “Residual activity, TTK” value was 83 % of control in assay [9] (assay conc. 1.0E-06 M) and 97 % of control in assay [9] (assay conc. 1.0E-07 M).
With `C#Cc1cc(Nc2ncnc3cc(I)ccc23)ccc1Cl` [Compound 41], the Residual activity is given as 77 % of control in [1] (1.0E-06 M); 86 % of control in assay [1] (1.0E-07 M); 87 % of control in assay [3] (MAP3K7/MAP3K7IP1, 1.0E-06 M); 98 % of control in assay [3] (MAP3K7/MAP3K7IP1, 1.0E-07 M); 94 % of control in assay [4] (EPHA7, 1.0E-06 M); 85 % of control in assay [4] (EPHA7, 1.0E-07 M). Also, the Residual activity in assay [5] (ARK5, 1.0E-06 M) is 108 % of control; in assay [5] (ARK5, 1.0E-07 M), 110 % of control; in assay [7] (EPHA5, 1.0E-06 M) it was 126 % of control; in [7] (EPHA5, 1.0E-07 M), 128 % of control; in assay [8] (1.0E-06 M), 96 % of control; in assay [8] (1.0E-07 M), 105 % of control. Moreover, the “Residual activity, VEGF-R1” value is listed as 113 % of control in assay [2] (assay conc. 1.0E-06 M) and 92 % of control in [2] (assay conc. 1.0E-07 M). The “Residual activity, RPS6KA3” value in assay [6] (assay conc. 1.0E-06 M) is recorded as 96 % of control; in [6] (assay conc. 1.0E-07 M) it was 99 % of control. In addition, the entries for the “Residual activity, TTK” value in assay [9] (assay conc. 1.0E-06 M) and in assay [9] (assay conc. 1.0E-07 M) were 81 % of control and 100 % of control, respectively.
